Measurements published in US6395752B1, “Method of treating depression using 1-threo-methylphenidate” (Pharmaquest Limited, priority 1999, dated 2002).
Marks after values point to notes of the source that are not given here.

How the values were obtained:
[1] = oral, cited from earlier work
[2] = Profile of Mood State (POMS) rating scale, randomized 4-phase cross-over study, intravenous administration; type: in vivo, healthy male volunteers; conditions: i.v.; for Vigor ratings: POMS Vigor-Activity; for Rank order of ratings for Tension, Depression and Anger: three components of Dysphoria, same order in each case
Text: The Profile of Mood State (POMS) rating scale was used to estimate pharmacodynamic factors including Anger-Hostility, Confusion-Bewilderment, Depression-Dejection, Fatigue-Inertia, Tension-Anxiety, and Vigor-Activity. In addition composite scores were also produced for “Energy” (“Vigor-Activity” minus “Fatigue-Inertia”) and “Dysphoria” (“Anger-Hostility” plus “Depression-Rejection” plus “Tension-Anxiety”).

[3] = plasma; i.v. 10 mg d1-MPH; 11 healthy male volunteers; mean ± SD; cited from earlier work
[4] = after oral administration of the racemic drug; cited from earlier work

SMILES | Hamilton depression scale decrease, subjects with minimal decrease ([1]; 3 subjects) [%] | Hamilton depression scale decrease, subjects with marked decrease ([1]; 7 subjects) [%] | Benefit in depressed patients ([1]; older, medically ill depressed patients, n=16) | Vigor ratings ([2]; healthy male volunteers) | Effect on "Energy" composite score ([2]; healthy male volunteers) | Rank order of ratings for Tension, Depression and Anger [2] | t1/2 [3] | Absolute bioavailability (F) [4] | POMS rating for Fatigue-Inertia ([2]; healthy male volunteers)
COC(=O)[C@H](c1ccccc1)[C@H]1CCCCN1 [d1-MPH, d1-threo-methylphenidate] | < 30 | > 55 | statistically and clinically significant | significantly different from those for 1-MPH and placebo | enhanced | 1-MPH<placebo<d1-MPH<d-MPH | – | – | –
COC(=O)[C@@H](c1ccccc1)[C@@H]1CCCCN1 [1-MPH, 2S,2′S-methyl 2-phenyl-2-(2′-piperidyl) acetate] | – | – | – | – | – | 1-MPH<placebo<d1-MPH<d-MPH | 3.61 ± 1.12^b | 0.05 | –
COC(=O)[C@H](c1ccccc1)[C@H]1CCCCN1 [d-MPH, d-threo-methylphenidate] | – | – | – | significantly different from those for 1-MPH and placebo | not strongly energizing | 1-MPH<placebo<d1-MPH<d-MPH | – | – | significantly different from those after 1-MPH
